According to ChEMBL document CHEMBL1909046, “DrugMatrix in vitro pharmacology data”:

Legend:
[1] = target: Melanocortin receptor 3 (Homo sapiens, UniProt P41968); assay type: cell membranes, Membrane; conditions: hek293; further: in other assays of this panel Not Active means under 50% inhibition at 10 µM
[2] = target: C-C chemokine receptor type 5 (Homo sapiens, UniProt P51681); assay type: cell membranes, Membrane; conditions: hek293; further: in other assays of this panel Not Active means under 50% inhibition at 10 µM
[3] = target: T1, Estrogen receptor (Homo sapiens, UniProt P03372); conditions: sf9; further: in other assays of this panel Not Active means under 50% inhibition at 10 µM
T1 sequence (P03372 whole entry): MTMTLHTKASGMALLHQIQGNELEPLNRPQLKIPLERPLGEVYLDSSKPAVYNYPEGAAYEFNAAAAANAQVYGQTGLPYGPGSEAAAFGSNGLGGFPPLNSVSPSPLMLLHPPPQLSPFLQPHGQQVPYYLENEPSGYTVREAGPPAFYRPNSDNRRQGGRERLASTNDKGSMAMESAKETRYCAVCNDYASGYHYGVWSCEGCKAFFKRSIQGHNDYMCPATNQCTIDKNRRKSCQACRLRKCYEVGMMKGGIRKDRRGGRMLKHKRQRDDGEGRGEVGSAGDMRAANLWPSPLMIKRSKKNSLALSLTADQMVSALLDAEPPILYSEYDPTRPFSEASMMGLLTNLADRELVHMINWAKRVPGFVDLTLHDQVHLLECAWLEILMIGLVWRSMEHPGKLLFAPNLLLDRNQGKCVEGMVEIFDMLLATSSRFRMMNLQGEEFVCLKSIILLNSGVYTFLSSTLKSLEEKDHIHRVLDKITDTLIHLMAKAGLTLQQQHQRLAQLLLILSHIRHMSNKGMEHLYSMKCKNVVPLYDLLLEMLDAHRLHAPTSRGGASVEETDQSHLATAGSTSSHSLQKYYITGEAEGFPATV

[4] = DRUGMATRIX: Serotonin (5-Hydroxytryptamine) 5-HT3 radioligand binding (ligand: [3H] GR-65630); assay type: cell membranes, Membrane; conditions: hek293; Not Active = under 50% inhibition at 10 µM
[5] = target: Cytochrome P450 2C9 (Homo sapiens, UniProt P11712); conditions: bti-tn-5b1-4; further: in other assays of this panel Not Active means under 50% inhibition at 10 µM
[6] = target: Protein phosphatase 3 catalytic subunit alpha (Homo sapiens, UniProt Q08209); set-up: species or system Escherichia coli
[7] = target: 5-hydroxytryptamine receptor 6 (Homo sapiens, UniProt P50406); assay type: cell membranes, HeLa, Membrane; conditions: hela; further: in other assays of this panel Not Active means under 50% inhibition at 10 µM
[8] = target: Tyrosine-protein kinase Lck (Homo sapiens, UniProt P06239); experiment: DRUGMATRIX: Protein Tyrosine Kinase, LCK enzyme inhibition (substrate: Poly(Glu:Tyr)); assay type: cell-based, Insect cells; conditions: insect cells; Not Active = under 50% inhibition at 10 µM
[9] = target: Melanocortin receptor 5 (Homo sapiens, UniProt P33032); assay type: cell membranes, HEK293, Membrane; conditions: hek293; further: in other assays of this panel Not Active means under 50% inhibition at 10 µM
[10] = DRUGMATRIX: Phorbol Ester radioligand binding (ligand: [3H] PDBu); assay type: cell membranes, Mus musculus, ICR, Brain, Membrane; conditions: Not Active = under 50% inhibition at 10 µM
[11] = target: T2, Polyunsaturated fatty acid lipoxygenase ALOX15 (Oryctolagus cuniculus, UniProt P12530); experiment: biochemical; assay type: tissue-based, Reticulocytes; conditions: reticulocytes
T2 sequence (P12530 whole entry): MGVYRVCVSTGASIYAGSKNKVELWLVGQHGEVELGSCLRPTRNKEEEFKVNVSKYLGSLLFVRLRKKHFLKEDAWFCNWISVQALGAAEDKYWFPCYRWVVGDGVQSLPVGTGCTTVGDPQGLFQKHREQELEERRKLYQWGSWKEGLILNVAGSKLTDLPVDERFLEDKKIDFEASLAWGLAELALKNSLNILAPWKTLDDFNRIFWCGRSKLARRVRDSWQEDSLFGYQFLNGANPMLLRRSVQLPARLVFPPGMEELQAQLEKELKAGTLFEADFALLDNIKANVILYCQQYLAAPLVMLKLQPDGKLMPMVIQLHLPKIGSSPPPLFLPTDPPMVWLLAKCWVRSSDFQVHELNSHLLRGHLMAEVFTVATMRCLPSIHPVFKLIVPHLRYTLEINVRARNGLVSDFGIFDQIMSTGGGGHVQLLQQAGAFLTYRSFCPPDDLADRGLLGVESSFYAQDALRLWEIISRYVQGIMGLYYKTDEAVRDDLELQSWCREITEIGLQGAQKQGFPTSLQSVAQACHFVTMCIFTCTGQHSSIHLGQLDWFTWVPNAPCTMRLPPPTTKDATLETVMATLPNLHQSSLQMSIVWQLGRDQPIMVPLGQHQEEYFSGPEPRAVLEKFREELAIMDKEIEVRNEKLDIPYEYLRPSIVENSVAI

[12] = target: T3, Alpha-2A adrenergic receptor (Homo sapiens, UniProt P08913); assay type: cell membranes, Sf9, Membrane; conditions: sf9; further: in other assays of this panel Not Active means under 50% inhibition at 10 µM
T3 sequence (P08913 whole entry): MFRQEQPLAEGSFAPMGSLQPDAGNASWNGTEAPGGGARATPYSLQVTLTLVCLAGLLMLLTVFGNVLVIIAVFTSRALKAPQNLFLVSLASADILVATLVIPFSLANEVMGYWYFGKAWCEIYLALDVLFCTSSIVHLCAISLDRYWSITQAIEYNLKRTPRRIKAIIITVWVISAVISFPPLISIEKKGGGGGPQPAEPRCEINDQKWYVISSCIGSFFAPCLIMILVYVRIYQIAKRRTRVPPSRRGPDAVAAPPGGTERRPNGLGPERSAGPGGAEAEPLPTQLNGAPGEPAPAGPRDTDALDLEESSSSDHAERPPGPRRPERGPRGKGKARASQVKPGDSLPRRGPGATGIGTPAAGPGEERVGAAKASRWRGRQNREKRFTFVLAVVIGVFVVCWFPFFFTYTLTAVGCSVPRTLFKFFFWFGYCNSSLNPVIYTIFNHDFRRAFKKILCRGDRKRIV

[13] = DRUGMATRIX: Calcium Channel Type L, Phenylalkylamine radioligand binding (ligand: [3H] (-)-Desmethoxyverapamil (D-888)); assay type: cell membranes, Rattus norvegicus, Wistar, Brain, Membrane; conditions: Not Active = under 50% inhibition at 10 µM
[14] = target: T4, C-X-C chemokine receptor type 1 (Homo sapiens, UniProt P25024); further: in other assays of this panel Not Active means under 50% inhibition at 10 µM
T4 sequence (P25024 whole entry): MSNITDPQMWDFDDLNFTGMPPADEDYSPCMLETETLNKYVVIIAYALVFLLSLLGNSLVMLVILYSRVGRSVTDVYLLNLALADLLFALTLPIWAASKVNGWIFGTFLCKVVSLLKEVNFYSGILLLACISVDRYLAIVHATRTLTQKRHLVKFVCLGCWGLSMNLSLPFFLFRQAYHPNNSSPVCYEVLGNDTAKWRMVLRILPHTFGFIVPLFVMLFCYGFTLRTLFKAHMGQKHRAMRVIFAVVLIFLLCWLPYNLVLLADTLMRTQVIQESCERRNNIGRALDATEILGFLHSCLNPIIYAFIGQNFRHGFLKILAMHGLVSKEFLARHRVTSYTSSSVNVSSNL

Sequence of 5-hydroxytryptamine receptor 6 (P50406 whole entry): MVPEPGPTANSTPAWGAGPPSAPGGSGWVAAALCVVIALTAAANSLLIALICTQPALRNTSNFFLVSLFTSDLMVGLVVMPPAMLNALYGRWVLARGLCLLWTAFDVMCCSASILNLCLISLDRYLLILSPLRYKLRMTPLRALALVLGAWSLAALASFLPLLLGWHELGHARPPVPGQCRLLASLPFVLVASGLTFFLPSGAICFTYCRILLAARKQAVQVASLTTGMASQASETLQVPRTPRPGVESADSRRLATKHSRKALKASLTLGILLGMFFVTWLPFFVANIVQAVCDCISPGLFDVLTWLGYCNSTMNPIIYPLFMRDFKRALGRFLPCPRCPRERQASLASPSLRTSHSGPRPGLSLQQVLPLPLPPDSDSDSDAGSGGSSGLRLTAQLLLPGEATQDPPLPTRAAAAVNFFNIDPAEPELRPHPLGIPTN
Sequence of Cytochrome P450 2C9 (P11712 whole entry): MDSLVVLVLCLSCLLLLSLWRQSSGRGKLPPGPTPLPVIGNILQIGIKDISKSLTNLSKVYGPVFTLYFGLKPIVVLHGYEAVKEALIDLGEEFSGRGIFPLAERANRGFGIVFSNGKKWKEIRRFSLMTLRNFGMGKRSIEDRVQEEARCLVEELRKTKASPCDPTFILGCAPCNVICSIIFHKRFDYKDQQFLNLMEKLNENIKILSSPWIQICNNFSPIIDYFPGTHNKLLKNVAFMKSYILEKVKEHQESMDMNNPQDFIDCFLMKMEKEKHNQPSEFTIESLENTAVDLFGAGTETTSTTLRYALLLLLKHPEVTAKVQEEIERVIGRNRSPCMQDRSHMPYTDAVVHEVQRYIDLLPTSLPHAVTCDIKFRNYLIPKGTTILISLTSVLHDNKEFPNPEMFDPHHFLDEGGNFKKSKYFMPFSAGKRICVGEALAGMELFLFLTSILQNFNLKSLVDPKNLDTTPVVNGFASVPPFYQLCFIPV
Sequence of C-C chemokine receptor type 5 (P51681 whole entry): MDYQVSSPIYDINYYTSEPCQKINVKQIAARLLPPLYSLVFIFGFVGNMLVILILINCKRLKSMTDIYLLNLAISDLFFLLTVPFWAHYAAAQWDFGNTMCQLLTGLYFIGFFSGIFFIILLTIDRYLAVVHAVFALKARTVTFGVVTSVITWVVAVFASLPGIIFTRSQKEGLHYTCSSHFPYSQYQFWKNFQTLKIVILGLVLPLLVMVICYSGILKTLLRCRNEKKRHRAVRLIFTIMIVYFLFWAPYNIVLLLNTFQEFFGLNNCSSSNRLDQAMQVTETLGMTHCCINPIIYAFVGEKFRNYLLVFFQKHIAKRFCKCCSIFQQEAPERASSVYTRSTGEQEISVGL
Sequence of Melanocortin receptor 5 (P33032 whole entry): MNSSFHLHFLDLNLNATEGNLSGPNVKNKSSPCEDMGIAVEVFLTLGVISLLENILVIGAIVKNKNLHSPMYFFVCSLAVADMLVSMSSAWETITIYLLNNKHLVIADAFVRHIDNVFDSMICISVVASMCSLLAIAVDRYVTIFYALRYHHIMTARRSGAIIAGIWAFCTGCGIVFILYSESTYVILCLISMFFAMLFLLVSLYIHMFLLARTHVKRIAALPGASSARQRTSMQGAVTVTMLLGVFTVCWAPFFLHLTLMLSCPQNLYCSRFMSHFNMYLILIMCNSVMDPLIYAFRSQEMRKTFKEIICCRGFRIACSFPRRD
Sequence of Tyrosine-protein kinase Lck (P06239 whole entry): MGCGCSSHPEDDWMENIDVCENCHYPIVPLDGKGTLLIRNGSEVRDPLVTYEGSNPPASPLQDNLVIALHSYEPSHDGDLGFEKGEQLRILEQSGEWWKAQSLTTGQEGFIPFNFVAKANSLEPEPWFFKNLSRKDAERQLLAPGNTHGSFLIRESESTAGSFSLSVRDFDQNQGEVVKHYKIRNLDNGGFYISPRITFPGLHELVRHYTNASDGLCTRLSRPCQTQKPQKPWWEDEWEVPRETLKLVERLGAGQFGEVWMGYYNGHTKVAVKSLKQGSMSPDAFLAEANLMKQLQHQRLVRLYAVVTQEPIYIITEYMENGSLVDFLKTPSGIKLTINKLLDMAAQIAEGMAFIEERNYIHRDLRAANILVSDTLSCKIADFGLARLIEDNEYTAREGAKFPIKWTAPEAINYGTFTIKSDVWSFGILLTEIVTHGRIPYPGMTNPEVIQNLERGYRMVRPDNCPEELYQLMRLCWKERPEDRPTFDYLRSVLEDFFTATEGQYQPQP
Sequence of Melanocortin receptor 3 (P41968 whole entry): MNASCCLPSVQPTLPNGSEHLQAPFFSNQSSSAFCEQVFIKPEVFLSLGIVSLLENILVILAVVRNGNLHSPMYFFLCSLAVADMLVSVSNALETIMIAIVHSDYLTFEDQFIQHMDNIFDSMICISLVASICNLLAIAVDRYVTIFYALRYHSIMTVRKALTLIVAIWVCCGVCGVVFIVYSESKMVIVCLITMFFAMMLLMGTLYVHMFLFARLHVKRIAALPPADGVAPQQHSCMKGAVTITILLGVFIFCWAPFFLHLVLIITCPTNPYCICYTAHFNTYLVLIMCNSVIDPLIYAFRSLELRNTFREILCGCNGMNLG

Cn1cnc([N+](=O)[O-])c1Sc1ncnc2nc[nH]c12 [AZATHIOPRINE]
Not Active: IC50 [1] | IC50 [2] | IC50 [3] | IC50 [4] | Ki [4] | IC50 [5] | Ki [5] | IC50 [6] | IC50 [7] | IC50 [8] | IC50 [9] | IC50 [10] | Ki [10] | IC50 [11] | IC50 [12] | IC50 [13] | Ki [13] | IC50 [14]

CC1(C)S[C@@H]2[C@H](NC(=O)[C@H](NC(=O)N3CCNC3=O)c3ccccc3)C(=O)N2[C@H]1C(=O)O [AZLOCILLIN]
Not Active: IC50 [1] | IC50 [2] | IC50 [3] | IC50 [4] | Ki [4] | IC50 [5] | Ki [5] | IC50 [6] | IC50 [7] | IC50 [8] | IC50 [9] | IC50 [10] | Ki [10] | IC50 [11] | IC50 [12] | IC50 [13] | Ki [13] | IC50 [14]

OCc1ccccc1 [BENZYL ALCOHOL]
Not Active: IC50 [1] | IC50 [2] | IC50 [3] | IC50 [4] | Ki [4] | IC50 [5] | Ki [5] | IC50 [6] | IC50 [7] | IC50 [8] | IC50 [9] | IC50 [10] | Ki [10] | IC50 [11] | IC50 [12] | IC50 [13] | Ki [13] | IC50 [14]

CC(C)(Oc1ccc(CCNC(=O)c2ccc(Cl)cc2)cc1)C(=O)O [BEZAFIBRATE]
Not Active: IC50 [1] | IC50 [2] | IC50 [3] | IC50 [4] | Ki [4] | IC50 [5] | Ki [5] | IC50 [6] | IC50 [7] | IC50 [8] | IC50 [9] | IC50 [10] | Ki [10] | IC50 [11] | IC50 [12] | IC50 [13] | Ki [13] | IC50 [14]
